According to patent US7709475B2, “Selective inhibitors against Cdk4 and Cdk6 having aminothiazole skeleton” (Banyu Pharmaceutical Co., Ltd., priority 2004, dated 2010):

Columns and labels:
cyclin H-Cdk7 = target: T1, cyclin H-Cdk7 (Homo sapiens, UniProt P50613); test: Cdk7 inhibitory action: cyclin H-Cdk7 kinase activity; assay type: biochemical; details: cyclin H-Cdk7, 50 μM ATP
T1 construct: made in house; host or cells: insect cell Sf9 (baculovirus)
From the text: The cDNA of Cdk7, and the cDNA of a fusion protein of cyclin H, an activating factor of Cdk7, and glutathione S-transferase, were integrated into a baculovirus expression vector to prepare a recombinant baculovirus. This was co-transfected into insect cell Sf9 to express an active complex of the cyclin H/glutathione S-transferase fusion protein-Cdk7 at a high level. The cells were recovered and solubilized, then the active complex was adsorbed onto Glutathione Sepharose, and a cyclin H-Cdk7 active complex was recovered using Precision Protease.
For the measurement of the activity of cyclin H-Cdk7, a synthetic peptide ([…] was used as the substrate.
(§1) The reaction was performed by partially modifying the method of Kitagawa et al. [Oncogene, Vol. 7, 1067-1074 (1992)]. The volume of the reaction solution was 21.1 μL, and to the R buffer, purified cyclin H-Cdk7, 25 μM of the substrate peptide, 50 μM of non-labeled adenosine triphosphate (ATP), and 1 μCi of [γ-33P]-labeled ATP (2000 to 4000 Ci/mmole) were added to react at 30° C. for 45 minutes. Then, 10 μL of 350 mM phosphate buffer was added to the reaction system to terminate the reaction. The substrate peptide was adsorbed onto P81 paper filter on a 96-well plate, and then washed several times with 75 mM phosphate buffer. The radioactivity of the substrate peptide was measured with a liquid scintillation counter.
(§2) Addition of the compound according to the invention to the reaction system was carried out by first preparing a dilution series of solutions of the compound in dimethylsulfoxide (DMSO), and adding 1.1 μL of the dilutions. A control was provided by adding 1.1 μL of DMSO to the reaction system.
A representative compound of the compounds according to the invention was selected, and the IC50 value of this compound for the cyclin H-Cdk7 activity was determined.

cyclin D2-Cdk6 = target: T2, cyclin D2-Cdk6 (Homo sapiens, UniProt Q00534); test: Cdk6 inhibitory action: cyclin D2-Cdk6 kinase activity; assay type: biochemical; details: for K1/K6, selectivity for Cdk6 against Cdk1: IC50 of Cdk1 divided by IC50 of Cdk6; for K2/K6, selectivity for Cdk6 against Cdk2: IC50 of Cdk2 divided by IC50 of Cdk6; for K5/K6, selectivity for Cdk6 against Cdk5: IC50 of Cdk5 divided by IC50 of Cdk6; for K7/K6, selectivity for Cdk6 against Cdk7: IC50 of Cdk7 divided by IC50 of Cdk6; for K9/K6, selectivity for Cdk6 against Cdk9: IC50 of Cdk9 divided by IC50 of Cdk6; for IC50: cyclin D2-Cdk6, 50 μM ATP
T2 construct: made in house; host or cells: insect cell Sf9 (baculovirus)
T2 sequence (Q00534 whole entry): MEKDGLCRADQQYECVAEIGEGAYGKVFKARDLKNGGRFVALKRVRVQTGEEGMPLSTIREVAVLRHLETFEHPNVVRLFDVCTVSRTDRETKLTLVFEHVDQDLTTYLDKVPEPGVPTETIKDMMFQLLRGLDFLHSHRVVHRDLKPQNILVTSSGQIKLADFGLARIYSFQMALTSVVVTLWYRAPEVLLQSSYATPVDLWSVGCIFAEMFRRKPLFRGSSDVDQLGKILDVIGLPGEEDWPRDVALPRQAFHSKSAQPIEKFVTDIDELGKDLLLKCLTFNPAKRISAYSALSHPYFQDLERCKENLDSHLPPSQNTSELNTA
T2 sequence (P30279 whole entry partner): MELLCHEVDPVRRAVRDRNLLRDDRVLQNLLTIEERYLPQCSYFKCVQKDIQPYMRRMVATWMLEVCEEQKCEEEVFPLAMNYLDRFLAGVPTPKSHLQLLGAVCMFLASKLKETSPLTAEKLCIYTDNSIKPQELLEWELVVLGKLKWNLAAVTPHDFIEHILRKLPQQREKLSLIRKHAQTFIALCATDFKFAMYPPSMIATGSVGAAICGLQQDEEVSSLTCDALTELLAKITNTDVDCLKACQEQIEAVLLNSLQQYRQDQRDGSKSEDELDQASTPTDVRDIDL
From the text: In the same manner as in the case of cyclin D2-Cdk4, the cDNA of Cdk6, and the cDNA of a fusion protein of cyclin D2, an activating factor of Cdk6, and glutathione S-transferase, were integrated into a baculovirus expression vector to prepare a recombinant baculovirus. This was co-transfected into insect cell Sf9 to express an active complex of the cyclin D2/glutathione S-transferase fusion protein-Cdk6 at a high level. The cells were recovered and solubilized, then the active complex was adsorbed onto Glutathione Sepharose, and a cyclin D2-Cdk6 complex was recovered using Precision Protease and was purified by HPLC column chromatography.
For the measurement of the activity of cyclin D2-Cdk6, a synthetic peptide (Arg-Pro-Pro-Thr-Leu-Ser-Pro-Ile-Pro-His-Ile-Pro-Arg) was used as the substrate.
as §1, with “D2-Cdk6, 100” for “H-Cdk7, 25”, “40” for “45”
as §2
A representative compound of the compounds according to the invention was selected, and the IC50 value of this compound for the cyclin D2-Cdk6 activity was determined.

JURKAT = test: Inhibitory action against cell proliferation (WST-8), JURKAT; assay type: cell-based; details: Homo sapiens, 72 h, Jurkat cells, 3 days culture, read-out: concentration for 50% inhibition of cell proliferation (IC50), Jurkat
Description: Clinically isolated cancer cell lines EOL-1, KU812 and JURKAT were cultured in RPMI1640 medium containing 10% fetal calf serum at 37° C. in the presence of 5% CO2 under an atmosphere of saturated steam.
The inhibitory action against cell proliferation was measured by modifying the method of Skehan et al. [J. Natl. Cancer Inst., Vo. 82, 1107-1112 (1990)] according to the method of Ishiyama et al. [Talanta, Vol. 44, 1299 (1997)]. 100 μL each of cell culture medium containing 1×10^3 live cells of EOL-1, KU812 and JURKAT, respectively, was dispensed into each well of a 96-well cell culture dish, and the cells were cultured overnight. On the next day, a dilution series of solutions in DMSO was prepared from a DMSO solution of the compound of each Example. Then, the dilution series of solutions or DMSO only as a control for no drug addition were separately added to the medium for cell culture. Finally, 100 μL each of the culture medium containing either the dilution series of solutions of the compounds or DMSO only, was added to the cells which had been cultured in a 96-well dish, and then the cells were further cultured for 3 days.
After adding 20 μL each of WST-8 (Kishida Chemical Co., Ltd.) to each well and culturing the cells for another 2 hours, the optical densities at 450 nm were measured against a reference wavelength of 650 nm, and were compared with the control group. The results obtained by determining the concentrations for 50% inhibition of cell proliferation (IC50 (nM)) of the compounds of Examples are presented in the following Table 4.

T1 sequence (P50613 whole entry): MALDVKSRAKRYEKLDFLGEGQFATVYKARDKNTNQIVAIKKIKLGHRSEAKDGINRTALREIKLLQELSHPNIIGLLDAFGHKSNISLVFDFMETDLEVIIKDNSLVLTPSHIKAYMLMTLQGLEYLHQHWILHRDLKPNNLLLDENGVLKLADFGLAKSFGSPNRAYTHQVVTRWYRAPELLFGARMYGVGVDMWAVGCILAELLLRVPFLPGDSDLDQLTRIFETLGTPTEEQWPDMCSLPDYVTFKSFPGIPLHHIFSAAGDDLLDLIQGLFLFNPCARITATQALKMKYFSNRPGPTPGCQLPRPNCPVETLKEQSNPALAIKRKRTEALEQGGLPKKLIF
T1 sequence (P51946 whole entry partner): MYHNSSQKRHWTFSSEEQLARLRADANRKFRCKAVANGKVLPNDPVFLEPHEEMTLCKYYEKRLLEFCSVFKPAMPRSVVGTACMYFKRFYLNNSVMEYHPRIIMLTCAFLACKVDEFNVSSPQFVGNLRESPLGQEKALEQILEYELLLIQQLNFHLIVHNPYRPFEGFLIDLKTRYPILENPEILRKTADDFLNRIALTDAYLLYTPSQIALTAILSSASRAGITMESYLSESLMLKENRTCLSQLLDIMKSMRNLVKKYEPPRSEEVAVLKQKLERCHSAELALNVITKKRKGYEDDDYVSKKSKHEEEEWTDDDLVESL

SMILES	IC50 (cyclin H-Cdk7) [µM]	K1/K6, selectivity for Cdk6 against Cdk1 (cyclin D2-Cdk6)	K2/K6, selectivity for Cdk6 against Cdk2 (cyclin D2-Cdk6)	K5/K6, selectivity for Cdk6 against Cdk5 (cyclin D2-Cdk6)	K7/K6, selectivity for Cdk6 against Cdk7 (cyclin D2-Cdk6)	K9/K6, selectivity for Cdk6 against Cdk9 (cyclin D2-Cdk6)	IC50 (cyclin D2-Cdk6) [µM]	IC50 (JURKAT) [µM]
Cc1cc(-c2cnc(Nc3cnc(CN4CCN(C)CC4)cn3)s2)nc(OC2CCCCC2)n1 [Example 1, 5-[2-(cyclohexyloxy)-6-methyl-4-pyrimidinyl]-2-[5-(4-methyl-1-piperazinyl)methyl-2-pyrazinyl]amino-1,3-thiazole]	0.53	77	218	385	68	321	0.0078	0.23
Cc1cc(-c2cnc(Nc3cnc(CNC(C)C)cn3)s2)nc(SC2CCCCC2)n1 [Example 96, 5-[2-(cyclohexylthio)-6-methyl-4-pyrimidinyl]-2-[5-(isopropylamino)methyl-2-pyrazinyl]amino-1,3-thiazole]	0.16						0.0093	0.14
Cc1cc(-c2cnc(Nc3cnc(CNCCO)cn3)s2)nc(SC2CCCCC2)n1 [Example 99, 5-[2-(cyclohexylthio)-6-methyl-4-pyrimidinyl]-2-[5-(2-hydroxyethylamino)methyl-2-pyrazinyl]amino-1,3-thiazole]	0.12							0.19
Cc1cc(-c2cnc(Nc3cnc(CN4CCN(C)CC4)cn3)s2)nc(Sc2ccccc2Cl)n1 [Example 109, 5-[2-(2-chlorophenylthio)-6-methyl-4-pyrimidinyl]-2-[5-(4-methyl-1-piperazinyl)methyl-2-pyrazinyl]amino-1,3-thiazole]	0.28						0.018	0.11

Now from value to molecule:

IC50 (cyclin H-Cdk7) [µM]	K1/K6, selectivity for Cdk6 against Cdk1 (cyclin D2-Cdk6)	K2/K6, selectivity for Cdk6 against Cdk2 (cyclin D2-Cdk6)	K5/K6, selectivity for Cdk6 against Cdk5 (cyclin D2-Cdk6)	K7/K6, selectivity for Cdk6 against Cdk7 (cyclin D2-Cdk6)	K9/K6, selectivity for Cdk6 against Cdk9 (cyclin D2-Cdk6)	IC50 (cyclin D2-Cdk6) [µM]	IC50 (JURKAT) [µM]	SMILES
0.37	48	65	200	28	33	0.013	0.17	Cc1cc(-c2cnc(Nc3cnc(CN4CCC(N(C)C)C4)cn3)s2)nc(OC2CCCCC2)n1 (stereo not drawn) [Example 13, 5-[2-(cyclohexyloxy)-6-methyl-4-pyrimidinyl]-2-[5-(3-dimethylamino-1-pyrrolidinyl)methyl-2-pyrazinyl]amino-1,3-thiazole]
0.46						0.0051		Cc1cc(-c2cnc(Nc3cnc(CN4CCN(C)CC4)cn3)s2)nc(NC2CCCCC2)n1 [Example 55, 5-[2-(cyclohexylamino)-6-methyl-4-pyrimidinyl]-2-[5-(4-methyl-1-piperazinyl)methyl-2-pyrazinyl]amino-1,3-thiazole]
0.14						0.0073		Cc1cc(-c2cnc(Nc3cnc(CN4CCCC4)cn3)s2)nc(SC2CCCCC2)n1 [Example 93, 5-[2-(cyclohexylthio)-6-methyl-4-pyrimidinyl]-2-[5-(1-pyrrolidinyl)methyl-2-pyrazinyl]amino-1,3-thiazole]
0.091						0.016	0.18	Cc1cc(-c2cnc(Nc3cnc(CN4CCC(N(C)C)C4)cn3)s2)nc(SC2CCCCC2)n1 (stereo not drawn) [Example 94, 5-[2-(cyclohexylthio)-6-methyl-4-pyrimidinyl]-2-[5-(3-dimethylamino-1-pyrrolidinyl)methyl-2-pyrazinyl]amino-1,3-thiazole]
0.37						0.017	0.26	CC(=O)N1CCN(Cc2ccc(Nc3ncc(-c4cc(C)nc(OC5CCCCC5)n4)s3)nc2)CC1 [Example 125, 5-[2-(cyclohexyloxy)-6-methyl-4-pyrimidinyl]-2-[5-(4-acetyl-1-piperazinyl)methyl-2-pyridyl]amino-1,3-thiazole]
1.2	57	214	143	57	52	0.021	0.25	Cc1cc(-c2cnc(Nc3ccc(CN4CCC[C@H]4CO)cn3)s2)nc(NC2CCCCC2)n1 [Example 137, (2S)-5-[2-(cyclohexylamino)-6-methyl-4-pyrimidinyl]-2-[5-(2-hydroxymethyl-1-pyrrolidinyl)methyl-2-pyridyl]amino-1,3-thiazole]
